In ChEMBL document CHEMBL1201862, “PubChem BioAssay data set” (2004):
Values belong to the molecule of their own block, whether it stands above or below them. Calls of active or inactive are those of the source.

Experiments:
DLD-1 = assay: DLD-1 cell viability reduction – luminescence, round 1, cytotoxicity control for KLF5 inhibitor project, late-stage follow-up (AID 485338); format: functional, cell-based; conditions: Homo sapiens
[1] = Luminescence-based counterscreen assay for KLF5 inhibitors: dose response cell-based high throughput screening assay to identify cytotoxic compounds using the IEC-6 intestinal epithelial cell line. [Related pubchem assays: 1700 (Primary screen.), 1834 (Confirmation screen.), 1858 (Summary AID.), 1905 (Counterscreen.)]; format: functional
[2] = molecular target: G-protein coupled receptor 55 (Homo sapiens, UniProt Q9Y2T6); assay: selective activators of receptor GPR55 – imaging, U2OS cells, beta-arrestin-GFP redistribution, primary screen (AID 1961); format: functional
[3] = molecular target: T1, Tyrosine-protein phosphatase non-receptor type 22 (Homo sapiens, UniProt Q9Y2R2); assay: inhibition of lymphoid tyrosine phosphatase LYP – biochemical, pCAP fluorogenic substrate, fluorescence, set 3, SAR follow-up (AID 449727); format: functional
[4] = molecular target: T1, Tyrosine-protein phosphatase non-receptor type 22; assay: SAR LYP1 Fluorescent Assay using OMFP substrate for In Vitro dose response studies - Set 3. [Related pubchem assays (depositor defined):AID1779, AID1784, AID2140, AID2686]; format: functional
[5] = molecular target: Tyrosine-protein phosphatase non-receptor type 12 (Homo sapiens, UniProt Q05209); assay: SAR Selectivity Analysis of small molecule inhibitors of PEST using pCAP in a fluorescence assay. [Related pubchem assays (depositor defined):AID1779, AID1784, AID2135]; format: functional
Integrin alpha-L = Integrin alpha-L (Mus musculus, UniProt P24063); assay: modulators of CD8 T cell-vesicle binding, dose response, powder samples, mouse 2C CD8+ cells (AID 504565); format: functional
T-cell = assay: loss of vesicle association with mouse CD8+ T cells – mouse 2C CD8+ T cells, flow cytometry, dose response (AID 485284); format: functional
[6] = Fluorescence-based cell-based high throughput dose response assay for inhibitors of the interaction of nucleotide-binding oligomerization domain containing 2 (NOD2) and the receptor-interacting serine-threonine kinase 2 (RIPK2).; format: functional; conditions: Homo sapiens
Hexokinase = Hexokinase (Trypanosoma brucei, UniProt Q38C41); assay: Confirmation assay for inhibitors of Trypanosoma brucei hexokinase 1-Analogue-first series. [Related pubchem assays (depositor defined):AID1430, AID1632, AID2516, AID2560, AID2579, AID2600, AID449725, AID492951]; format: functional
Beta Lactamase = Beta Lactamase (Pseudomonas aeruginosa, UniProt Q932Y6); assay: BLA reporter interference, concentration series – BLA reporter cells, FRET fluorescence, artefact control for NOD2-RIPK2 interaction inhibitor project, dose response (AID 651552); format: functional, cell-based
[7] = molecular target: Glucose-6-phosphate 1-dehydrogenase (Homo sapiens, UniProt P11413); assay: inhibition of Homo sapiens G6PD, dose series – biochemical, fluorescence, selectivity assay for P. falciparum G6PD inhibitor project, dose response (AID 504792); format: functional
Genome polyprotein = Genome polyprotein (dengue virus type 2, UniProt P29990); assay: flavivirus cap methylation enzyme inhibition – biochemical, confirmation dose response, primary screen (AID 588689); format: functional
[8] = molecular target: T2, Rac GTPase-activating protein 1 (Homo sapiens, UniProt Q9H0H5); assay: blockers of MgcRacGAP-driven Rac1 GTP hydrolysis – biochemical, ADP Hunter fluorescence, primary and confirmatory, confirmation (AID 624330); format: functional
T2 sequence (Q9H0H5 whole entry): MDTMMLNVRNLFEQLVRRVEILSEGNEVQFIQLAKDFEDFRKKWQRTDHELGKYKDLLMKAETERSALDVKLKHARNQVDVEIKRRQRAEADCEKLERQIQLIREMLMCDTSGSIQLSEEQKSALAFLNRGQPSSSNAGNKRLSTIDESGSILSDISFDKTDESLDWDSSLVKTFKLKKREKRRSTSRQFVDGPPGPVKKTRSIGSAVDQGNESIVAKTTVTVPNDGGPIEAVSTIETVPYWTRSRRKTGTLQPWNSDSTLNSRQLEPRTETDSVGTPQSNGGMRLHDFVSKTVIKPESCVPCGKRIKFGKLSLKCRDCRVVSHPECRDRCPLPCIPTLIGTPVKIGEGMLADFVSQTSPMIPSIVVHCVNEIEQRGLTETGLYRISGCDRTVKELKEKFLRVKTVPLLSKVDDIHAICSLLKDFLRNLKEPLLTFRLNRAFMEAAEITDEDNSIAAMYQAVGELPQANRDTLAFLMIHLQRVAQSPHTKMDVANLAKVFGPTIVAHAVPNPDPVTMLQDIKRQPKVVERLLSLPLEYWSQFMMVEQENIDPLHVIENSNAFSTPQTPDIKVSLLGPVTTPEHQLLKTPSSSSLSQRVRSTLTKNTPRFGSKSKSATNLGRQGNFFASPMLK

[9] = molecular target: T3, Small ubiquitin-related modifier 1 (Homo sapiens, UniProt P63165); assay: SUMO1 protein interaction blockers, potency – biochemical, fluorescence polarization, uHTS hits, dose response (AID 624382); format: functional; conditions: read-out: IC50_Mean
ORF 73 = molecular target: T4, ORF 73 (Human herpesvirus 8, UniProt O40947); assay: KSHV LANA DNA-binding disruption – biochemical, fluorescence polarization, cherry-picked samples, dose response (AID 504725); parameters: species or system Human gammaherpesvirus 8;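 also: fluorescence polarization of a labeled DNA duplex reporting LANA DNA binding; potency is for inhibitors that block LANA binding to the DNA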
T4 sequence (O40947 whole entry): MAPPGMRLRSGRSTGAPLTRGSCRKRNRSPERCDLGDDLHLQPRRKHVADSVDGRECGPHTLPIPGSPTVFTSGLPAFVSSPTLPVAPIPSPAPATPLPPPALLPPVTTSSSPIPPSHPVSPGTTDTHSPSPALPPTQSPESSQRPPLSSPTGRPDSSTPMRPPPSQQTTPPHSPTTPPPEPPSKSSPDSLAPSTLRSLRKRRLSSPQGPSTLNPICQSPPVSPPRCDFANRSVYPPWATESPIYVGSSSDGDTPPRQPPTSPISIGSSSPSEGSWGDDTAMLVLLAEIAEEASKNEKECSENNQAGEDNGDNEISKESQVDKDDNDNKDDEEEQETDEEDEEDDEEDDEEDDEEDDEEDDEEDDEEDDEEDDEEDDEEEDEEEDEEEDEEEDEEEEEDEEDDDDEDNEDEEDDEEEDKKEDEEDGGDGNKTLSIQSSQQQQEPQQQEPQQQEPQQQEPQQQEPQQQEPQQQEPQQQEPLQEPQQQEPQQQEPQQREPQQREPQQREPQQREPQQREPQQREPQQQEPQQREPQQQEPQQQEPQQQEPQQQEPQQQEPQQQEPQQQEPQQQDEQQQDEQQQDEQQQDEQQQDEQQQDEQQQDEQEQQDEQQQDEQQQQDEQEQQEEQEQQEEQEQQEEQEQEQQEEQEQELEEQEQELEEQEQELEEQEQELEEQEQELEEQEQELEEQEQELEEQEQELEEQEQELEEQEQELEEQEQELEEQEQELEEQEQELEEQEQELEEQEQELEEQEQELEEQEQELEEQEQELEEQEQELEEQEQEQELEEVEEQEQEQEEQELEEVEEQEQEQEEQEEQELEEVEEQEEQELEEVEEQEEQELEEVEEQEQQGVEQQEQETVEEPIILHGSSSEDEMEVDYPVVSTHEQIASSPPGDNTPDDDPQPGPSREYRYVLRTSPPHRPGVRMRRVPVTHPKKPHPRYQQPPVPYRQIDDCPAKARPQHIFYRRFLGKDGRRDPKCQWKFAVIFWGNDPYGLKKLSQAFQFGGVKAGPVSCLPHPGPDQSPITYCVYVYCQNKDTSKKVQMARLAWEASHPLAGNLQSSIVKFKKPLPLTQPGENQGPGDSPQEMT

Salmon testes DNA = assay: acridine orange-DNA binding displacement – biochemical, fluorescence polarization, cherry-picked samples, set 2, artefact control for KSHV LANA DNA-binding inhibitor project, dose response (AID 504727); parameters: species or system Salmonidae
[10] = molecular target: T3, Small ubiquitin-related modifier 1; assay: SUMO1 protein-protein binding blockers, potency – biochemical, FRET, dose response (AID 624383); format: functional; conditions: read-out: IC50_Mean
[11] = molecular target: T5, Neuropeptides B/W receptor type 1 (Homo sapiens, UniProt P48145); assay: human NPBW1 receptor blockade, IC50 – cell-based, fluorescence, dose response, late-stage follow-up (AID 463251); format: functional
T5 sequence (P48145 whole entry): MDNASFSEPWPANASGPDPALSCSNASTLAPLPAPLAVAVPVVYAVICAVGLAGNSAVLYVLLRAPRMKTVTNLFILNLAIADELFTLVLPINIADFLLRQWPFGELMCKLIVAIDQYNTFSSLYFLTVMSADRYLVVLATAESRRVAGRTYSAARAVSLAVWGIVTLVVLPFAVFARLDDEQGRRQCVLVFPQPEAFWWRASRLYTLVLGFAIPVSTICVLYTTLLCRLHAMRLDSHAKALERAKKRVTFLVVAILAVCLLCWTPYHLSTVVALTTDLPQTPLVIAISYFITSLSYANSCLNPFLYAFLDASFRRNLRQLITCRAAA

[12] = molecular target: Melanin-concentrating hormone receptor 1 (Homo sapiens, UniProt Q99705); assay: Late-stage fluorescence-based counterscreen for antagonists of the G-protein coupled receptor 7 (GPR7): cell-based dose response assay to identify antagonists of the melanin-concentrating hormone receptor 1 (MCHR1). [Related pubchem assays (depositor defined):AID1861, AID1880, AID1952, AID2148, AID2251, AID2257, AID485339]; format: functional;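 also: stimulated with 30 nM MCH peptide agonist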
[13] = molecular target: Envelope glycoprotein gp160 (Human immunodeficiency virus 1, UniProt Q6QLK5); assay: cell-free HIV fusion peptide-binding blockers – biochemical, uHTS, fluorescence dequenching, […] (AID 1986)

T3 sequence (P63165 whole entry): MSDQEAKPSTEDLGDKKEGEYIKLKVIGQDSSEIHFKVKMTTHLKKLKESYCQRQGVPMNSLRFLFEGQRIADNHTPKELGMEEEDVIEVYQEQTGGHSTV
T1 sequence (Q9Y2R2 whole entry): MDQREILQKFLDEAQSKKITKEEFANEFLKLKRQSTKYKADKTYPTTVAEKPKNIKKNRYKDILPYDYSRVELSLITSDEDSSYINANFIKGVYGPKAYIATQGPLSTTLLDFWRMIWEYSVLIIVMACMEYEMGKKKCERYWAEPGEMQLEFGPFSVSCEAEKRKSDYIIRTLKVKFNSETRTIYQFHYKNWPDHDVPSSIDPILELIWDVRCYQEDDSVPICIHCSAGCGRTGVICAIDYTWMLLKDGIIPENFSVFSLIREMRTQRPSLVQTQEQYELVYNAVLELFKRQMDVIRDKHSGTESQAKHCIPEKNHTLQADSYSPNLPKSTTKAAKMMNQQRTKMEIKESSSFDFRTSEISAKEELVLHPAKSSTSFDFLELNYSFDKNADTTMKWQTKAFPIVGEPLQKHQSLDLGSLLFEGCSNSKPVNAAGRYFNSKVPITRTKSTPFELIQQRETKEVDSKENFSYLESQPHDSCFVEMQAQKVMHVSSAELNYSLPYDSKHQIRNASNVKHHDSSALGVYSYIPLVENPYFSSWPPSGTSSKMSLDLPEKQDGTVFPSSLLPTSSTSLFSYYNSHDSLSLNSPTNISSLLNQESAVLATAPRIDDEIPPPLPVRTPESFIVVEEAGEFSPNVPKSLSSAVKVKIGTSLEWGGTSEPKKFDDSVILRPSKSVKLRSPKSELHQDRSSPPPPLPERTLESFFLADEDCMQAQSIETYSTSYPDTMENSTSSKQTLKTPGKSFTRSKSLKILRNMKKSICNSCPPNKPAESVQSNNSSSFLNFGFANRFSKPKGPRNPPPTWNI
Melanin-concentrating hormone receptor 1, sequence (Q99705 whole entry, the tested form may be a part): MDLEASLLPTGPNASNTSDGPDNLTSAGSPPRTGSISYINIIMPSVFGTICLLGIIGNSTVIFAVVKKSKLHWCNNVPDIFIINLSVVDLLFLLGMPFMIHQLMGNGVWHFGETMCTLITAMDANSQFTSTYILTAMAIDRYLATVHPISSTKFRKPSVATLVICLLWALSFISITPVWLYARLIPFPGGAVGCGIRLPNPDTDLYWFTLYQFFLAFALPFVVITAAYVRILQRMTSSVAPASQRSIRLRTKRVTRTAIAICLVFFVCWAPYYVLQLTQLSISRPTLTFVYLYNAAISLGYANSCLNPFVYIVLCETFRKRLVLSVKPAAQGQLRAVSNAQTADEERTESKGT
Beta Lactamase, sequence (Q932Y6 whole entry): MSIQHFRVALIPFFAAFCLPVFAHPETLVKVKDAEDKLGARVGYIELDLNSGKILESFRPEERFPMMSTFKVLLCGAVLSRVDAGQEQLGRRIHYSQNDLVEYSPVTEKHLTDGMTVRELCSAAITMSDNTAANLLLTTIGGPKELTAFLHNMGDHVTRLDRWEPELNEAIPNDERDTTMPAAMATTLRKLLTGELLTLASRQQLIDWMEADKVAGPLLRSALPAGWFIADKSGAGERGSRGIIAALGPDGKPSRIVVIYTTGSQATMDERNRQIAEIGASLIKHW
G-protein coupled receptor 55, sequence (Q9Y2T6 whole entry): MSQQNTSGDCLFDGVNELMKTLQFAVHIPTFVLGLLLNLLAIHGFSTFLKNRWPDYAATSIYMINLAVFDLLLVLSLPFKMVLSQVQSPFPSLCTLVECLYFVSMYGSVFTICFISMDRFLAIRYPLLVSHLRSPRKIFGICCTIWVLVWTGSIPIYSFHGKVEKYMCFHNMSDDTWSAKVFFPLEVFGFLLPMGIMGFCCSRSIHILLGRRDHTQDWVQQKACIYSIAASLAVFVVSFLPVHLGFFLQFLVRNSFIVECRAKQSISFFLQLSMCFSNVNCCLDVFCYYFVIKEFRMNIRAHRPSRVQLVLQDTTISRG
Hexokinase, sequence (Q38C41 whole entry): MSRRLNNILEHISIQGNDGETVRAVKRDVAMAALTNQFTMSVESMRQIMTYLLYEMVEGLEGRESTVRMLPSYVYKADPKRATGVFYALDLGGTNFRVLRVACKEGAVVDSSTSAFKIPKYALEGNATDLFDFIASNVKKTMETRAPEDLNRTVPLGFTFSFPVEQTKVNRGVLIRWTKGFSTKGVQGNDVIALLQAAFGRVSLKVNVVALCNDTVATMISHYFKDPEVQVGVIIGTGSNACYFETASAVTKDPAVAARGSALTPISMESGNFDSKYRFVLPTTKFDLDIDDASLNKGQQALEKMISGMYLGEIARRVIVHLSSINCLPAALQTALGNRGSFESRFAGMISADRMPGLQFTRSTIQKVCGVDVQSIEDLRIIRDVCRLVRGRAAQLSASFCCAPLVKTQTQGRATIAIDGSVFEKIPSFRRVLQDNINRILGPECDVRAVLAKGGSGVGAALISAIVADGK
Tyrosine-protein phosphatase non-receptor type 12, sequence (Q05209 whole entry): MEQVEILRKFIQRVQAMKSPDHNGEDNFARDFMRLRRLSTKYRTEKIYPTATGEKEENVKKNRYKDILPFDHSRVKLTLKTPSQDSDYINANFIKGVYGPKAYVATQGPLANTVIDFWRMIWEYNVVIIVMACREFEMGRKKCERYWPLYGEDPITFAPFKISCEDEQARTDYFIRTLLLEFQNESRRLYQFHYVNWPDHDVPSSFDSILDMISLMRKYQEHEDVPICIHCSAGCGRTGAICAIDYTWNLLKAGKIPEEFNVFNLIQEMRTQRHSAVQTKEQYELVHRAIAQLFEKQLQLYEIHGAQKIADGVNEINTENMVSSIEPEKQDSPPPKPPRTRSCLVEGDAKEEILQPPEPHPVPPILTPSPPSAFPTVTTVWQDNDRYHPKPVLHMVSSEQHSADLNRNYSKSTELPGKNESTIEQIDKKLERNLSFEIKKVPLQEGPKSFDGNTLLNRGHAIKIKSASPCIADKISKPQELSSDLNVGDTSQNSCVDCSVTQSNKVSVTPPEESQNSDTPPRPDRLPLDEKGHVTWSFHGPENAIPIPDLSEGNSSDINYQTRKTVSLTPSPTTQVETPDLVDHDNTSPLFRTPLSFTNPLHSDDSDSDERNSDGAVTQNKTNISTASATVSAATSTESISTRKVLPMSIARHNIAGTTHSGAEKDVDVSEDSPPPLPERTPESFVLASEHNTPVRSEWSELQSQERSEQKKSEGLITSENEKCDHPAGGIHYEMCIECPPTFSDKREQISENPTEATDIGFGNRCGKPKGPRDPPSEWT
Integrin alpha-L, sequence (P24063 whole entry): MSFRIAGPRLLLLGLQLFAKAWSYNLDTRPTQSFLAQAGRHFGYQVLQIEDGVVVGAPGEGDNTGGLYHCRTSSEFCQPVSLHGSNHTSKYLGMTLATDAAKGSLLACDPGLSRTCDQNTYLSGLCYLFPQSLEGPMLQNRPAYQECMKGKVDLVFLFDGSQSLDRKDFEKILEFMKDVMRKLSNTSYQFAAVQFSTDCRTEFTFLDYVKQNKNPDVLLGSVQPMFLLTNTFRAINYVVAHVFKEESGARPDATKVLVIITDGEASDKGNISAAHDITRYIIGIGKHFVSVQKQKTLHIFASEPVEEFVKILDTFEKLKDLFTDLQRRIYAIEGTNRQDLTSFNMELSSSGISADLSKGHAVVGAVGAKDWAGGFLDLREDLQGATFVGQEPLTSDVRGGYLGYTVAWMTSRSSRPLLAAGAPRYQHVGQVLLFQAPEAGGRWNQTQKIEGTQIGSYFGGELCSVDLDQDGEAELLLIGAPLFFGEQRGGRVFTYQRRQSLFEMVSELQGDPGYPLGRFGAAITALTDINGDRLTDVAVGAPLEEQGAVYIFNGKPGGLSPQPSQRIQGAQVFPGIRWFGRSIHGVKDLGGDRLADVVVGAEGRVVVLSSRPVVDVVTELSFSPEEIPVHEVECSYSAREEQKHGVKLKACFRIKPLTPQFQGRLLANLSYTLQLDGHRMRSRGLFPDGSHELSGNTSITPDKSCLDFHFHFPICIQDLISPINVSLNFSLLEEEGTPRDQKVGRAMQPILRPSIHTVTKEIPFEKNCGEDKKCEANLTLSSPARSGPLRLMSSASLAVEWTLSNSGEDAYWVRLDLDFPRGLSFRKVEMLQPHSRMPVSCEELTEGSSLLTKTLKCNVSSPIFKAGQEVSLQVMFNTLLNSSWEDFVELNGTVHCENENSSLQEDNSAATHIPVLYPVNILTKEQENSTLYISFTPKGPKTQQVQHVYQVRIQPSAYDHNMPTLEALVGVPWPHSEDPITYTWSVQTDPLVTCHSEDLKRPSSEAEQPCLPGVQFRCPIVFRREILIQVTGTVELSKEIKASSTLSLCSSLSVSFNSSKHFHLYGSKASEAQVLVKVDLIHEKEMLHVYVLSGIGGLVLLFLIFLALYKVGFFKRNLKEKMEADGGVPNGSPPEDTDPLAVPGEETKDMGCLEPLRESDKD
Glucose-6-phosphate 1-dehydrogenase, sequence (P11413 whole entry): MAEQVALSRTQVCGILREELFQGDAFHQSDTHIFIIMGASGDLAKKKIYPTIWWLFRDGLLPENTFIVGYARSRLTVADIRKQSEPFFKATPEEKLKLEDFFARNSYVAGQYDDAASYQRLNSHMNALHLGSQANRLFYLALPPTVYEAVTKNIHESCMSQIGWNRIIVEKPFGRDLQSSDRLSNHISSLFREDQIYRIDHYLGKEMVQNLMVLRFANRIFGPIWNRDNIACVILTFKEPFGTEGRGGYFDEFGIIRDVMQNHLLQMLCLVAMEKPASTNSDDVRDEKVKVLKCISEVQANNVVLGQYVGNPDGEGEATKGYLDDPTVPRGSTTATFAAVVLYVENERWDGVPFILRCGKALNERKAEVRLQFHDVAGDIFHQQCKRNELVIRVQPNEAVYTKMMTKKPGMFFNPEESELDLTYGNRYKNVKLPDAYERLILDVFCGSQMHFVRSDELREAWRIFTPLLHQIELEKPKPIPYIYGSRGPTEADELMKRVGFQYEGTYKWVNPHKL

- EC50 [2]: 8.51 µM (active)
Structure (SMILES): Cc1ccc(C)n1-n1cnc2sc(-c3ccccc3)cc2c1=O

- IC50 [3]: 25.7 µM (active)
- IC50 [4]: 45.1 µM (active)
- IC50 [5]: 3.85 µM (active)
Structure (SMILES): CCOC(=O)C1=C(C)N=c2sc(=Cc3ccc(OCC(=O)O)cc3)c(=O)n2C1c1ccc(OC(C)C)cc1 (stereo unspecified)

- IC50 [13]: 6.31 µM (active)
Structure (SMILES): OCCOCCN1CCN(C(c2ccccc2)c2ccc(Cl)cc2)CC1 (stereo unspecified) [HYDROXYZINE PAMOATE]

More lines, now with the values behind:

Structure (SMILES): CCOC(=O)c1sc(NC(=O)c2cc3c(s2)CCC(C)C3)nc1C (stereo unspecified)
- IC50 (DLD-1): 19.3 µM (inactive)
- IC50 [1]: > 39.8 µM (not active)

Structure (SMILES): CCOC(=O)C1CCCN(S(=O)(=O)c2ccc(F)c(C(=O)Nc3ccc(F)c(F)c3)c2)C1 (stereo unspecified)
- EC50 (Integrin alpha-L): 19.3 µM (active)
- EC50 (T-cell): 0.202 µM (active)

Structure (SMILES): Cc1ccc(NC(=O)Cn2sc3ccccc3c2=O)cc1
- IC50 [6]: 5.7 µM (active)
- IC50 (Hexokinase): 5.18 µM (active)
- IC50 (Beta Lactamase): 17.7 µM (inactive)
- IC50 [7]: 15.1 µM (active)

Structure (SMILES): Nc1cccc2c(O)cc(S(=O)(=O)O)cc12
- IC50 (Genome polyprotein): 42.7 µM (active)
- IC50 [8]: 98.6 µM (active)
- IC50 [9]: > 66.6 µM (inactive)
- AC50 (ORF 73): 29.7 µM (active)
- AC50 (Salmon testes DNA): 132 µM (active)
- IC50 [10]: 5.35 µM (active)

Structure (SMILES): O=C(C1CCCCN1Cc1cccc(Cl)c1)N1CCN(c2ccc([N+](=O)[O-])cc2)CC1 (stereo unspecified)
- IC50 [11]: 2.8 µM (active)
- IC50 [12]: 2.9 µM (active)
